In data set [1] the test system is Mycobacterium tuberculosis. As to the kind of experiment: Antimycobacterial activity against Mycobacterium tuberculosis H37Rv. The data set is classed as functional.
For data set [2], the system named is Mycobacterium tuberculosis. The experiment in a line: Potency index, ratio of ethambutol MIC to compound MIC for Mycobacterium tuberculosis H37Rv. The data set is classed as functional.
The subject of data set [3] is Mycobacterium tuberculosis. The experiment in a line: Antimycobacterial activity against Mycobacterium tuberculosis H37Rv ATCC 27294 by agar dilution method. The data set is classed as functional.
In a further data set the target is T1, Pantothenate synthetase (Mycobacterium tuberculosis, UniProt P9WIL5).
T1 sequence (P9WIL5 whole entry): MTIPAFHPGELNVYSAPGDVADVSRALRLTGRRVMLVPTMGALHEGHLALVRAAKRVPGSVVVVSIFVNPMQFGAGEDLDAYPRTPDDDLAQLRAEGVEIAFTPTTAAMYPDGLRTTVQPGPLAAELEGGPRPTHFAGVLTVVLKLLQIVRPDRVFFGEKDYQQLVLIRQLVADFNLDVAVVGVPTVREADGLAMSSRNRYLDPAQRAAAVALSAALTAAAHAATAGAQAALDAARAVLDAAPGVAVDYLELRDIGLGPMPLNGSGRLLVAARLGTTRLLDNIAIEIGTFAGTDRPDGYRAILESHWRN
The experiment in a line: Inhibition of Mycobacterium tuberculosis pantothenate synthetase.

Data set [4] deals with Mycobacterium tuberculosis. The experiment in a line: Potency index, ratio of linezolid MIC to compound MIC for Mycobacterium tuberculosis H37Rv. The data set is classed as functional.
The subject of data set [5] is Mycobacterium tuberculosis. As to the kind of experiment: Antimycobacterial activity against Mycobacterium tuberculosis H37Rv ATCC 27294 after 5 days by MABA. The data set is classed as functional. To be noted: H37Rv ATCC 27294, 120 h.
Data set [6] is described as follows: Selectivity index, ratio of cytotoxic concentration for HEK293 cells to MIC for Mycobacterium tuberculosis H37Rv ATCC 27294. The data set is classed as toxicity. The following applies: human, read-out: Selectivity Index.
The subject of data set [7] is Mycobacterium tuberculosis. As to the kind of experiment: Potency index, ratio of ethambutol MIC to compound MIC for Mycobacterium tuberculosis H37Rv ATCC 27294. The data set is classed as functional.
Data set [8] concerns the target T2, Phosphotyrosine protein phosphatase (Mycobacterium tuberculosis, UniProt A0A045ISB3).
T2 sequence (A0A045ISB3 whole entry): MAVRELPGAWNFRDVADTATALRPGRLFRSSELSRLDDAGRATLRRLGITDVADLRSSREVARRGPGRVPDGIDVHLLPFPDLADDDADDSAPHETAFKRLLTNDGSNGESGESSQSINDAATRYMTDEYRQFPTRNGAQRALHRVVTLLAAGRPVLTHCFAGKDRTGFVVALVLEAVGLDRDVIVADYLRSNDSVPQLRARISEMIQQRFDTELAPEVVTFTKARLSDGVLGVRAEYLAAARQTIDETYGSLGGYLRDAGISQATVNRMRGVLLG
The experiment in a line: Inhibition of Mycobacterium tuberculosis PTPB.

The test system of data set [9] is Mycobacterium tuberculosis. The experiment in a line: Antimycobacterial activity against Mycobacterium tuberculosis MC2 7000. The data set is classed as functional.
Data set [10] concerns Mycobacterium tuberculosis. As to the kind of experiment: Antimycobacterial activity against Mycobacterium tuberculosis MC2 6230. The data set is classed as functional.
[11] abbreviates: Mycobacterium tuberculosis, H37Rv.

These results are taken from ChEMBL document CHEMBL4190261, “Triazole derivatives and their anti-tubercular activity” (Eur J Med Chem, 2017).

SMILES strings stand for the structures. pIC50: −log10 of the molar value. ≈ marks a conversion by molar mass, not a printed value.

Compound `CCCCCc1ccc(-c2cn(CC(O)COc3ccc4c(c3)OC3(CCCCC3)CC4=O)nn2)cc1` (stereo not given) had an MIC in data set [1] (setting [11]) of 0.78 µg/mL (≈ 1.55 µM). In addition, in data set [2], the Ratio is given as 2.

As for `COc1ccc(-c2nnc(-c3cccnc3)n2Nc2nc3c(Cl)cccc3s2)cc1`, the MIC99 in data set [1] (setting [11]) came to 25 µg/mL (≈ 57.5 µM).

Compound `COc1ccc(-n2cc(Cn3nc(-c4ccccc4)c4c3CCN(C(=O)Nc3ccccc3)C4)nn2)cc1` had an MIC in data set [3] of 24.7 µM (≈ 12.5 µg/mL). The compound also gave a pIC50 at Pantothenate synthetase of 6.00.

The compound `O=C1CC2CN(c3ccc(N4C[C@H](Cn5ccnn5)OC4=O)cc3F)CC2C1` (stereo not given in full) showed an MIC in data set [1] (setting [11]) of 0.5 µg/mL (≈ 1.3 µM). Also, the Ratio in [4] is given as 2.

Consider `O=C(N/N=C1/C(=O)N(Cc2ccc(Cl)cc2)c2ccccc21)c1ccc(-n2cc(-c3ccccc3)nn2)cc1O`, for which the lowest concentration to inhibit growth in data set [5] (MIC) was 0.39 µg/mL (≈ 0.71 µM). In [6], the selectivity ratio was > 128. In addition, in [7], the Ratio came to 8.

`O=C(CCCCCCn1cc(COc2ccc(-c3cc(C(=O)O)no3)c(C3CCCCC3)c2)nn1)Nc1ccc2cc3ccccc3cc2c1` had a negative-log IC50 (pIC50) in [8] of 6.77.

For `c1cncc(-c2nn3c(COc4cnccn4)nnc3s2)c1`, the lowest concentration to inhibit growth in data set [1] (setting [11]) (MIC) was 0.4 µg/mL (≈ 1.28 µM).

Consider `Clc1cccc(Cl)c1-c1nnc2sc(-c3cccnc3)nn12`, for which the MIC in data set [1] (setting [11]) was 25 µg/mL (≈ 71.8 µM).

Take `CC1=C(C(=O)O)N2C(=O)[C@@H](NC(=O)[C@H](N)c3ccccc3)[C@H]2SC1` [CEPHALEXIN ANHYDROUS]: the MIC in data set [9] and in [10] was 0.12 to 144 µM throughout.

Consider `CC[C@@H](CO)NCCN[C@@H](CC)CO` [ETHAMBUTOL], for which the minimal inhibitory concentration (MIC) was determined as 3.13 µg/mL (≈ 15.3 µM) in data set [5] and 1.56 µg/mL (≈ 7.64 µM) in data set [1] (setting [11]).

With `CCc1cc(C(N)=S)ccn1` [ETHIONAMIDE], the MIC in data set [9] and in [10] was 0.12 to 144 µM each time.

Regarding `NNC(=O)c1ccncc1` [ISONIAZID], the MIC in data set [5] was 0.06 µg/mL (≈ 0.438 µM); in data set [1] (setting [11]), 0.075 µg/mL (≈ 0.547 µM); in data set [9], 0.12 to 144 µM; in data set [10] it was 0.12 to 144 µM.

In turn, `CC(=O)NC[C@H]1CN(c2ccc(N3CCOCC3)c(F)c2)C(=O)O1` [LINEZOLID] gave a minimum inhibitory concentration (MIC) in data set [1] (setting [11]) of 1 µg/mL (≈ 2.96 µM).

Turning to `NC(=O)c1cnccn1` [PYRAZINAMIDE], the MIC in data set [1] (setting [11]) is 100 µg/mL (≈ 812 µM).

For the compound `CO[C@H]1/C=C/O[C@@]2(C)Oc3c(C)c(O)c4c(O)c(c(/C=N/N5CCN(C)CC5)c(O)c4c3C2=O)NC(=O)/C(C)=C\C=C\[C@H](C)[C@H](O)[C@@H](C)[C@@H](O)[C@@H](C)[C@H](OC(C)=O)[C@@H]1C` [RIFAMPIN], the minimum inhibitory concentration (MIC) in data set [5] is 0.39 µg/mL (≈ 0.474 µM); in data set [1] (setting [11]) it was 0.043 to 0.5 µg/mL (≈ 0.0523 to 0.608 µM); in [9], 0.12 to 144 µM; in data set [10], 0.12 to 144 µM. This compound gave an MIC98 in [1] of 40 µg/mL (≈ 48.6 µM).
